# Biological target: T1, YgbP/IspD (Escherichia coli, UniProt Q46893)
# T1 sequence (Q46893 2-236): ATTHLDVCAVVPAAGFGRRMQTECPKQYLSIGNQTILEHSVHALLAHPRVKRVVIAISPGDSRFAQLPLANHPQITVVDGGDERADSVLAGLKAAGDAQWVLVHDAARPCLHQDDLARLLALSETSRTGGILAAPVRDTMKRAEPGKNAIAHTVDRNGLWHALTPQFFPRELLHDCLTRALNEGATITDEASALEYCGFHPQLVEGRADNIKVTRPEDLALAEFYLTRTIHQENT
# Assay: steady-state inhibition kinetics, malachite green phosphate assay coupled to inorganic pyrophosphatase
# Format: biochemical
compound,measurement,value
"[N-]=[N+]=NC[C@](O)(CO)[C@H](O)COP(=O)(O)O [compound 11, MEPN3]",Ki,21 ± 3 µM
